Read-outs that look alike come from different tables or passages of the source.
Columns and labels:
KRAS-G12V = KRAS-G12V (Homo sapiens, UniProt P01116, G12V); experiment: SOS-catalyzed nucleotide exchange assay (Procedure A, TR-FRET), KRAS-G12V; type: biochemical
Outline: (§1)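 TR-FRET 520/495 nm ratio read after SOS-driven exchange of Bodipy-GDP for unlabeled GTP (3 mM) on biotinylated RAS bound to Tb-streptavidin. There was a 60 min compound preincubation, RT. Final RAS/SOS and reaction times: G12C 3 nM/40 nM; WT 1 nM/40 nM; NRAS 1.25 nM/40 nM, each 60 min. G12V was 1.25 nM/160 nM, 90 min.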

KRAS-WT = KRAS-WT (Homo sapiens, UniProt P01116); experiment: SOS-catalyzed nucleotide exchange assay (Procedure A, TR-FRET), KRAS-WT; type: biochemical
Outline: as §1

KRAS-G12D = KRAS-G12D (Homo sapiens, UniProt P01116, G12D); experiment: SOS-catalyzed nucleotide exchange assay (Procedure A, TR-FRET), KRAS-G12D; type: biochemical
Outline: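 Signal ratio (520/495 nm, excitation 340 nm) reports Bodipy-GDP retention on biotinylated RAS after SOS-catalyzed exchange with 3 mM GTP. SOS was 40 nM, except 160 nM for G12V. Room-temperature exchange lasted 60 min (90 min for G12V), following a 60 min compound preincubation.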

[1] = biological target: KRAS-G12C (C51S/C80L/C118S) (Homo sapiens, UniProt P01116, C118S/C51S/C80L/G12C); experiment: SOS-catalyzed nucleotide exchange assay (Procedure A, TR-FRET), KRAS-G12C; type: biochemical
Description: (§2) Procedure for SOS-Catalyzed Nucleotide Exchange Assay for KRAS-WT, G12C/D/V, G13D, HRAS, and NRAS (Procedure A)
(§3) Recombinant KRAS-G12C protein used in this assay has an additional triple mutation (C51S/C80L/C118S). Whereas KRAS-WT, G12D/V, G13D, HRAS and NRAS are in context of their WT protein sequence background. Specifically, the SOS-catalyzed nucleotide exchange assay utilizes a preformed TR-FRET complex containing a specific biotinylated RAS protein (KRAS-WT, G12C/V/D, G13D, HRAS, NRAS; described above) with Bodipy-GDP, and Terbium-streptavidin. Compounds are preincubated with this complex for 60 minutes. Subsequently, recombinant human SOS protein and unlabeled GTP are added to initiate the exchange reaction. Small molecule inhibitors stabilize the Bodipy-GDP complex whereas the untreated protein rapidly exchanges Bodipy-GDP for unlabeled GTP resulting in reduced TR-FRET signal.
(§4) To assemble the preformed TR-FRET complexes, each biotinylated RAS protein is diluted to 2 μM in an EDTA Buffer (20 mM HEPES pH 7.5, 50 mM sodium chloride, 10 mM EDTA, and 0.01% Tween) and incubated at room temperature for one hour. This mixture is then further diluted to 90 nM in an Assay Buffer (20 mM HEPES pH 7.5, 150 mM sodium chloride, 10 mM magnesium chloride, and 0.005% Tween) containing 15 nM of Terbium-Streptavidin (Invitrogen, catalog #PV3577) and 900 nM of Bodipy-GDP (Invitrogen, catalog #G22360) and incubated at room temperature for six hours. It should be noted that this preformed TR-FRET complex for each of the RAS protein were made ahead of time, aliquoted and stored at −80° C. until the day of the experiment.
(§5) Each test compound (10 mM stock in DMSO) is diluted in DMSO to make a final-10-point, 3-fold dilution and is acoustically dispensed into a 384-well assay plate (Corning, catalog #3820) using an Echo 550 (Labcyte). Each well of the assay plate receives 3 μL of a specific 3×RAS preformed TR-FRET complex and 3 μL of Assay Buffer and is incubated at room temperature for 60 minutes (preincubation time). Each well then receives 3 μL of 3×recombinant human SOS protein and GTP (Sigma, G8877) in Assay Buffer and is incubated at room temperature for 30 minutes (G13D), 60 minutes (KRAS WT/G12C/D, H/NRAS) or 90 minutes for G12V. The final reaction in each well of 9 μL consists of 3 mM GTP, specific Ras and SOS proteins in the following concentrations: KRAS-G12C/SOS=3 nM/40 nM, KRAS-WT and G12D/SOS=1 nM/40 nM, KRAS-G12V/SOS=1.25 nM/160 nM. KRAS-G13D/SOS=1.25 nM/0 nM, HRAS and NRAS=1.25 nM/40 nM.
(§6) The time-resolved fluorescence resonance energy transfer (TR-FRET) signal is measured on an Envision (PerkinElmer) plate reader: Excitation filter=340 nm; emission 1=495 nm; emission2=520 nm; dichroic mirror=D400/D505; delay time=[…]. The signal of each well is determined as the ratio of the emission at 520 nm to that at 495 nm. Percent effect of each well is determined after normalization to control wells containing DMSO (no effect) or a saturating concentration of inhibitor (max effect). The apparent effect as a function of compound concentration is fit to a four-parameter logistic equation.

AsPC-1 cells = experiment: Cellular phospho-ERK assay, AsPC-1 cells (homozygous KRAS-G12D); type: cell-based; conditions: Homo sapiens, read-out: AsPC1 pERK IC50
Outline: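 p-ERK/total ERK ratio, measured by AlphaLISA SureFire Ultra multiplex in lysates, was fitted to a 4-parameter logistic model for IC50. Compound exposure was 2 h at 37° C, 5% CO2, 10-point 1:3 dilutions from 30 μM final, on cells plated the previous night.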

KRAS-G13D = KRAS-G13D (Homo sapiens, UniProt P01116, G13D); experiment: SOS-catalyzed nucleotide exchange assay (Procedure A, TR-FRET), KRAS-G13D; type: biochemical
Description: as §2, §3, §4, §5, §6

[2] = nucleotide exchange, read-out: KRAS G12V GNE IC50
[3] = nucleotide exchange, read-out: KRAS WT GNE IC50
[4] = nucleotide exchange, read-out: KRAS G12D GNE IC50
[5] = nucleotide exchange, Procedure A, read-out: KRAS G12C GNE IC50
[6] = ASPC1, 2 h, 2 hours compound incubation
[7] = nucleotide exchange, Procedure A, read-out: KRAS G13D GNE IC50

Chain of KRAS-G12C (C51S/C80L/C118S) (P01116 with tags, fused parts or gaps isoform P01116-2 G12C/C51S/C80L/C118S): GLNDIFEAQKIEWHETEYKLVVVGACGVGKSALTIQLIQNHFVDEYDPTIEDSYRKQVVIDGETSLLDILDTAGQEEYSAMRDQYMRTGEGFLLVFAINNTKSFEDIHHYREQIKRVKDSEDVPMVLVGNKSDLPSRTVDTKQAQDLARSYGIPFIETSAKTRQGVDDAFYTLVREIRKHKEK
Chain of KRAS-G12V (P01116 with tags, fused parts or gaps isoform P01116-2 G12V): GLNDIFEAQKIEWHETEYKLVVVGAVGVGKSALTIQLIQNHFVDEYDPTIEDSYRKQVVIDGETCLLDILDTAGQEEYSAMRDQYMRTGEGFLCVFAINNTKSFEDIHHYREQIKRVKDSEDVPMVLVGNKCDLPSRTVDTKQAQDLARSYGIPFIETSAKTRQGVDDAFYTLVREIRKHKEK
Chain of KRAS-G13D (P01116 with tags, fused parts or gaps isoform P01116-2 G13D): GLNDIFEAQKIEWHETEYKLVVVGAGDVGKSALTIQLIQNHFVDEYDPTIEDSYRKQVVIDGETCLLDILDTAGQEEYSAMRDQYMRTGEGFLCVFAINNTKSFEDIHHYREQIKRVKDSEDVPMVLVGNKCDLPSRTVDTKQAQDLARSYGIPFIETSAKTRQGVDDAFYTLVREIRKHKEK
Chain of KRAS-G12D (P01116 with tags, fused parts or gaps isoform P01116-2 G12D): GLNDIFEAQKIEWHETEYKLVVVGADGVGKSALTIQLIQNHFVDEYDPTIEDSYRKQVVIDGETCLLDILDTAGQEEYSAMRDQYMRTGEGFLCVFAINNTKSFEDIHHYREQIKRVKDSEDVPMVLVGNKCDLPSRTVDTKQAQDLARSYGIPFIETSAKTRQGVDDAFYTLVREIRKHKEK
Chain of KRAS-WT (P01116 with tags, fused parts or gaps isoform P01116-2): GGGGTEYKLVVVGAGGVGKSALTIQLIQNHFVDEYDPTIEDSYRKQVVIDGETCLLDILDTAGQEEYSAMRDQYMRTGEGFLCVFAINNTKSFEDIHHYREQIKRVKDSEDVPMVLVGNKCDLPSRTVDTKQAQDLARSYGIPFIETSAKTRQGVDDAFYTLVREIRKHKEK

IC50 (KRAS-G12V; [2]) [nM]	IC50 (KRAS-WT; [3]) [nM]	IC50 (KRAS-G12D; [4]) [nM]	IC50 [1, 5] [nM]	IC50 (AsPC-1 cells; [6]) [nM]	IC50 (KRAS-G13D; [7]) [nM]	IC50 (AsPC-1 cells; ASPC1, 2 h, KRAS-G12D, 2 hours) [nM]	Compound	IC50 (KRAS-G12V; KRAS G12V GNE IC50, nucleotide exchange) [nM]	IC50 (KRAS-WT; KRAS WT GNE IC50, nucleotide exchange) [nM]	IC50 (KRAS-G12D; KRAS G12D GNE IC50, nucleotide exchange) [nM]	IC50 [1] [nM]	IC50 (AsPC-1 cells; ASPC1, KRAS-G12D, 2 hours) [nM]	IC50 (KRAS-G13D) [nM]
5630	11100	11100	423	8560	3690		Cc1cc2[nH]ncc2c(-c2nccc3c2sc2nc(OC[C@@]45CCCN4C[C@H](F)C5)nc(NC4CCC4)c23)c1C(F)(F)F [Ex-191, N-cyclobutyl-2-(((2R,7aS)-2-fluorotetrahydro-1H-pyrrolizin-7a(5H)-yl)methoxy)-8-(6-methyl-5-(trifluoromethyl)-1H-indazol-4-yl)pyrido [4′,3′:4,5]thieno[2,3-d] pyrimidin-4-amine]						
192	418	283	121	30000	409		Cc1cc2[nH]ncc2c(-c2nccc3c2sc2nc(OC[C@@]45CCCN4C[C@H](F)C5)nc(NC4CNC(=O)C4)c23)c1C(F)(F)F (stereo partly drawn) [Ex-192, 4-((2-(((2R,7aS)-2-fluoro-tetrahydro-1H-pyrrolizin-7a(5H)-yl)methoxy)-8-(6-methyl-5-(trifluorometh-yl)-1H-indazol-4-yl)pyrido [4′,3′:4,5]thieno[2,3-d]pyrimidin-4-yl)amino)-pyrrolidin-2-one]						
476	1200	643	418	18300	970		Cc1cc2[nH]ncc2c(-c2nccc3c2sc2nc(OC[C@@]45CCCN4C[C@H](F)C5)nc(N4CCCC5(CNC(=O)C5)C4)c23)c1C(F)(F)F (stereo partly drawn) [Ex-193, 7-(2-(((2R,7aS)-2-fluoro-tetrahydro-1H-pyrrolizin-7a(5H)-yl)methoxy)-8-(6-methyl-5-(trifluorometh-yl)-1H-indazol-4-yl)pyrido [4′,3′:4,5]thieno[2,3-d]pyrimidin-4-yl)-2,7-diaza-spiro[4.5]decan-3-one]						
312	796	423	124		461	1810	Cc1cc2[nH]ncc2c(-c2ncnc3c2sc2nc(OC[C@@]45CCCN4C[C@H](F)C5)nc(N4CCOC[C@@](C)(O)C4)c23)c1C(F)(F)F [Ex-276, (6S)-4-(7-(((2R,7aS)-2-fluorotetrahydro-1H-pyrrolizin-7a(5H)-yl)methoxy)-4-(6-methyl-5-(trifluoromethyl)-1H-indazol-4-yl)thieno[2,3-d:4,5-d′]dipyrimidin-9-yl)-6-methyl-1,4-oxazepan-6-ol]						
64.6	94.6	39.2	184		38	1100	Cc1cc2[nH]ncc2c(-c2nncc3c2sc2nc(OC[C@@]45CCCN4C[C@H](F)C5)nc(N4CCOC[C@@](C)(O)C4)c23)c1C(F)(F)F [Ex-277, (6S)-4-(2-(((2R,7aS)-2-fluorotetrahydro-1H-pyrrolizin-7a(5H)-yl)methoxy)-8-(6-methyl-5-(trifluoromethyl)-1H-indazol-4-yl)pyrimido[5′,4′:4,5]thieno[2,3-d]pyridazin-4-yl)-6-methyl-1,4-oxazepan-6-ol]						
							Cc1cc2[nH]ncc2c(-c2nccc3c2[se]c2nc(OC[C@@]45CCCN4C[C@H](F)C5)nc(N4CCOC[C@@](C)(O)C4)c23)c1C(F)(F)F [Ex-288, (6S)-4-(2-(((2R,7aS)-2-fluorotetrahydro-1H-pyrrolizin-7a(5H)-yl)methoxy)-8-(6-methyl-5-(trifluoromethyl)-1H-indazol-4-yl)pyrido[4′,3′:4,5]selenopheno[2,3-d]pyrimidin-4-yl)-6-methyl-1,4-oxazepan-6-ol]	25.9	69.1	34.6	22	374	50.7
134	603	175	76.9		308	2320	Cc1cc2[nH]ncc2c(-c2nccc3c2oc2nc(OC[C@]4(CN(C)C)CC4(F)F)nc(N4CCOC[C@@](C)(O)C4)c23)c1C(F)F [Ex-292, (6S)-4-(8-(5-(difluoromethyl)-6-methyl-1H-indazol-4-yl)-2-(((R)-1-((dimethylamino)methyl)-2,2-difluorocyclopropyl)meth-oxy)pyrido[4′,3′:4,5]furo[2,3-d]pyrimidin-4-yl)-6-methyl-1,4-oxazepan-6-ol]						
203	455	149	136		296	1010	C=C(C)c1c(C)cc2[nH]ncc2c1-c1nccc2c1oc1nc(OC[C@]3(CN(C)C)CC3(F)F)nc(N3CCOC[C@@](C)(O)C3)c12 [Ex-293, (6S)-4-(2-(((R)-1-((dimethylamino)methyl)-2,2-difluorocyclopropyl)meth-oxy)-8-(6-methyl-5-(prop-1-en-2-yl)-1H-indazol-4-yl)pyrido[4′,3′:4,5]furo[2,3-d]pyrimidin-4-yl)-6-methyl-1,4-oxazepan-6-ol]						
125	262	113	30.1		106	295	CN(C)C[C@@]1(COc2nc(N3CCOC[C@@](C)(O)C3)c3c(n2)oc2c(-c4c(C5CC5)c(Cl)cc5[nH]ncc45)nccc23)CC1(F)F [Ex-294, (6S)-4-(8-(6-chloro-5-cyclopropyl-1H-indazol-4-yl)-2-(((R)-1-((dimethylamino)methyl)-2,2-difluorocyclopropyl)meth-oxy)pyrido[4′,3′:4,5]furo[2,3-d]pyrimidin-4-yl)-6-methyl-1,4-oxazepan-6-ol]						
101	167	48.7	43.9		80.1	316	Cc1cc2[nH]ncc2c(-c2nccn3c2cc2nc(OC[C@]4(CN(C)C)CC4(F)F)nc(N4CCOC[C@@](C)(O)C4)c23)c1C1CC1 [Ex-296, (S)-4-(9-(5-cyclopropyl-6-methyl-1H-indazol-4-yl)-2-(((R)-1-((dimethylamino)meth-yl)-2,2-difluorocyclopropyl)methoxy)pyrazino [1′,2′:1,5]pyrrolo[3,2-d]pyrimidin-4-yl)-6-methyl-1,4-oxazepan-6-ol]						
